The text below walks through data of article PMC3945162 (Psychopharmacology, 2013).

Data set [1] deals with T1, hDAT (Homo sapiens, UniProt Q01959). In words: [3H]Dopamine release, HEK-hDAT cells. The data set is classed as cell-based.
Data set [2] deals with rats trained to discriminate DOM (0.5 mg/kg) from saline. Type of data set: in vivo, rat.
Data set [3] deals with T2, human 5-HT1A receptor (Homo sapiens, UniProt P08908).
T2 sequence (P08908 1-422): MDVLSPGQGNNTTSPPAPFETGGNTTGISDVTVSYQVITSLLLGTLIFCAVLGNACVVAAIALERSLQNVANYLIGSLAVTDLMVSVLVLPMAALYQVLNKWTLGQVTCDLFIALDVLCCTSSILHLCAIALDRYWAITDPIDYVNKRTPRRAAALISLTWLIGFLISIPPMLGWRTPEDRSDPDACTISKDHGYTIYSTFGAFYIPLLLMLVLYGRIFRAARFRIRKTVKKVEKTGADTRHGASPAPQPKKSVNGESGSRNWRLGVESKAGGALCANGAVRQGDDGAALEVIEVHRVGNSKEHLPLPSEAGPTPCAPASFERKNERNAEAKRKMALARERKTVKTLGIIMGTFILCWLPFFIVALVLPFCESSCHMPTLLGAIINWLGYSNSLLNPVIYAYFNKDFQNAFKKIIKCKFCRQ
In words: [3H]8-OH-DPAT binding, HEK-5-HT1A.

The target of data set [4] is T3, hNET (Homo sapiens, UniProt P23975). Description: cell-based.
T3 sequence (P23975 whole entry): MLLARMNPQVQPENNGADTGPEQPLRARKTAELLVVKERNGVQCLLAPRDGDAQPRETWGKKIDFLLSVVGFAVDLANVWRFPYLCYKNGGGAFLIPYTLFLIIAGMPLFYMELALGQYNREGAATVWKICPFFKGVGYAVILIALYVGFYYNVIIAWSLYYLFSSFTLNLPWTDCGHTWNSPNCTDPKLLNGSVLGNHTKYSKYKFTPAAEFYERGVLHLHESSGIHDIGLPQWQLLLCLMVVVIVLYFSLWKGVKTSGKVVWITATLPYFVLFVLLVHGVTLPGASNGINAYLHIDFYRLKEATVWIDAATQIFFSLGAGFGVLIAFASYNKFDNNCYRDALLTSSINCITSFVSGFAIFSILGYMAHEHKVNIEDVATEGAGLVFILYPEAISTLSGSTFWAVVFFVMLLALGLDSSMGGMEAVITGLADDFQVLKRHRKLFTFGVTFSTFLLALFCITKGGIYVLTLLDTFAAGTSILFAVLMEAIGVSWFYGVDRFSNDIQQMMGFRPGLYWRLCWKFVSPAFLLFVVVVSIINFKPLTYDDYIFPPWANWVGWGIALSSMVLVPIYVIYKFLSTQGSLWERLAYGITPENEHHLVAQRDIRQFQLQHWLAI
Data set [5] concerns the target T4, hSERT (Homo sapiens, UniProt P31645). Description: [3H]Serotonin release, HEK-hSERT cells. Type of data set: cell-based.
For the next data set, the system named is Male Sprague-Dawley rats. In words: Adverse effects observed during drug discrimination test sessions. The data set is classed as in vivo, rat.
Data set [6] concerns the target T5, human 5-HT2C receptor (Homo sapiens, UniProt P28335).
T5 sequence (P28335 33-458): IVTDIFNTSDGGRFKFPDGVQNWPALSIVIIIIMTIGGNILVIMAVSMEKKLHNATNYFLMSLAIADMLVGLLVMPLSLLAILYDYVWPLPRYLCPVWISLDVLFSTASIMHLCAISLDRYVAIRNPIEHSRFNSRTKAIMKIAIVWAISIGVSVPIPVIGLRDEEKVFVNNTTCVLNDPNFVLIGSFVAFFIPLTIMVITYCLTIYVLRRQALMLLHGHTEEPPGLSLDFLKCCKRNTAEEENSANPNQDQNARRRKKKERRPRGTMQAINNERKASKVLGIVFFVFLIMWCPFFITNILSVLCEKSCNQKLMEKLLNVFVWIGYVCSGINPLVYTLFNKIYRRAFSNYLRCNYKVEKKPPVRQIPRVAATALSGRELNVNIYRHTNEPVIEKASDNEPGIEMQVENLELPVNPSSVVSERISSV
Description: cell-based. The settings on record: for Emax: read-out: 5-HT2C Function IP-formation % maximal effect.

The target in data set [7] is T2, human 5-HT1A receptor. Description: [35S]GTPγS binding functional assay, HEK-5-HT1A. The data set is classed as biochemical. The conditions noted are these: for Emax: read-out: 5-HT1A Function [35S]GTPγS Binding % maximal effect.
Data set [8] deals with rats trained to discriminate LSD (0.1 mg/kg) from saline. The data set is classed as in vivo, rat. The settings on record: LSD-trained rats; for Maximum %DAR (drug-appropriate responding): i.p., at dose of maximum DAR.
Data set [9] deals with rats trained to discriminate DMT (5 mg/kg) from saline. The data set is classed as in vivo, rat. The conditions noted are these: DMT-trained rats.
Data set [10] concerns the target T1, hDAT. Description: [3H]Dopamine uptake, HEK-hDAT cells. The data set is classed as cell-based.
The target of data set [11] is T1, hDAT. Description: [125I]RTI-55 binding, HEK-hDAT cells.
For data set [12], the target named is T6, human 5-HT2A receptor (Homo sapiens, UniProt P28223). Description: [125I]DOI binding, HEK-5-HT2A cells.
T6 sequence (P28223 whole entry): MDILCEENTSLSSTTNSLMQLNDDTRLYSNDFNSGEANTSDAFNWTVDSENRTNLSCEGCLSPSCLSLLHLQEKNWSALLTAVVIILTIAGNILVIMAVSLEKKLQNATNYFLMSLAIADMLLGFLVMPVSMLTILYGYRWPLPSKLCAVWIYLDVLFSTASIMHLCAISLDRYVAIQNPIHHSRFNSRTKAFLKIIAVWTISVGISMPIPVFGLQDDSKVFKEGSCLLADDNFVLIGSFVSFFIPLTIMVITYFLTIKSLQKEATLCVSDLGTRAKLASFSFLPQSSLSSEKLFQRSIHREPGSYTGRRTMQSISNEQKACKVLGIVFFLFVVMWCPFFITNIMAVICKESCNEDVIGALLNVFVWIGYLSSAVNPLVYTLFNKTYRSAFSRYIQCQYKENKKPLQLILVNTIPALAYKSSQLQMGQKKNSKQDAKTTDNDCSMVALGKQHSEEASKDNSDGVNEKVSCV
Data set [13] concerns the target T4, hSERT. In words: [125I]RTI-55 binding, HEK-hSERT cells.
Another data set deals with Male Swiss–Webster mice. Description: Locomotor activity. Type of data set: in vivo, mouse.
In data set [14] the target is T3, hNET. Description: biochemical. The data set is classed as binding.
Data set [15] has as its system rats trained to discriminate MDMA (1.5 mg/kg) from saline. Type of data set: in vivo, rat. The conditions noted are these: MDMA-trained rats.
For data set [16], the target named is T4, hSERT. Description: [3H]Serotonin uptake, HEK-hSERT cells. Type of data set: cell-based.
The target of data set [17] is T6, human 5-HT2A receptor. Description: [3H]AA release from HEK-5-HT2A cells. Type of data set: cell-based.
Data set [18] deals with rats trained to discriminate METH (1 mg/kg) from saline. Type of data set: in vivo, rat. The conditions noted are these: METH-trained rats.
For data set [19], the target named is T3, hNET. Description: cell-based. The source holds these as a separate data set.
The target of data set [20] is T5, human 5-HT2C receptor. In words: biochemical. The data set is classed as binding.
In data set [21] the target is T6, human 5-HT2A receptor. Description: IP-1 formation, HEK-5-HT2A cells. The data set is classed as cell-based. The conditions noted are these: for Emax: read-out: 5-HT2A Function IP-1 formation % maximal effect.
The subject of a further data set is 5-HT2A. The conditions noted are these: ref McLean et al. 2006; cited from earlier work.
The target of data set [22] is T1, hDAT. The settings on record: read-out: [3H]Dopamine release EC50; HEK-hDAT cells; ref Gatch et al., 2011; cited from earlier work.
The target of data set [23] is T4, hSERT. The conditions noted are these: read-out: [3H]Serotonin release EC50; HEK-hSERT cells; ref Gatch et al., 2011; cited from earlier work.
Data set [24] has as its target T3, hNET. The conditions noted are these: read-out: [3H]NE release EC50; HEK-hNET cells; ref Gatch et al., 2011; cited from earlier work.
Setting [25] is: i.p., 15 min pretreatment, at dose of maximum DAR.
Where [26] appears, read: 10 mg/kg, METH-trained rats, 15 min.

Molecules are shown by their SMILES. “And” between values parts separate entries of the source, which are not always exact repeats. Equal values may be shown once. Read-outs that look alike come from different tables or passages of the source. Some results are limits rather than exact numbers.

T1 sequence (Q01959 whole entry): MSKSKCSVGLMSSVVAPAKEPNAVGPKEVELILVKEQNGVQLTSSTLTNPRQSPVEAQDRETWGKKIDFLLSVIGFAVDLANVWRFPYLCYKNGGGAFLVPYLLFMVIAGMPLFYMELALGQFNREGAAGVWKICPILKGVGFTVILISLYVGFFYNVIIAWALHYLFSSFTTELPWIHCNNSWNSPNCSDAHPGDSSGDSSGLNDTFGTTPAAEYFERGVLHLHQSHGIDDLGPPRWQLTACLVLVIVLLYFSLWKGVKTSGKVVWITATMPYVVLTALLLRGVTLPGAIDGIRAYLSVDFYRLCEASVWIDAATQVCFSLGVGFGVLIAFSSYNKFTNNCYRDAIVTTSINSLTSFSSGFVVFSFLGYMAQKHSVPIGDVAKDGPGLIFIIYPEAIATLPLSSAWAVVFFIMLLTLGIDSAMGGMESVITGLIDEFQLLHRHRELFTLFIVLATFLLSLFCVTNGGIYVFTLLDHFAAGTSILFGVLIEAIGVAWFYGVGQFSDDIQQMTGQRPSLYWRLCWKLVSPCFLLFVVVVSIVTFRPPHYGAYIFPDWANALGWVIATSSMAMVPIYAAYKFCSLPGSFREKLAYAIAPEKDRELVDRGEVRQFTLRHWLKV
T4 sequence (P31645 whole entry): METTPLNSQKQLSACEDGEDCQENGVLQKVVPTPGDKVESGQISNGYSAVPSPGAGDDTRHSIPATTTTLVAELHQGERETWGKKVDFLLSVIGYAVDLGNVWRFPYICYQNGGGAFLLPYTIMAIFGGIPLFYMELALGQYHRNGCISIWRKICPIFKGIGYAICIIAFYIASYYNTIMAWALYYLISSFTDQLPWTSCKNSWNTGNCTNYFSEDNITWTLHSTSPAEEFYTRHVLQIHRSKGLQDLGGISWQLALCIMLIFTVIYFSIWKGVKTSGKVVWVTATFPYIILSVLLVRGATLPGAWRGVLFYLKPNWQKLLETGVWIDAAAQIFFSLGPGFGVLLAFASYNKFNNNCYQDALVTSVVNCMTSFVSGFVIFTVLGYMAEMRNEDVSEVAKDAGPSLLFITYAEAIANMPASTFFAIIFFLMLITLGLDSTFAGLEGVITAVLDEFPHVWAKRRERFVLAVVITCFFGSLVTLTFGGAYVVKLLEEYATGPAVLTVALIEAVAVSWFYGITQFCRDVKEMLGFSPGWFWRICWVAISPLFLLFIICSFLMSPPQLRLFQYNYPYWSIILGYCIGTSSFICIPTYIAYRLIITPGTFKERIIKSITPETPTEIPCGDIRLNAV

For the compound `COc1cc(CCN)c(OC)cc1C` [2C-D, 2,5-dimethoxy-4-methylphenethylamine], at hDAT [1] (HEK-hDAT cells), the “[3H]Dopamine release % METH maximal effect” value is “ND Minimal”. Moreover, the “Rate of responding at dose of maximum DAR” value in [2] (15 min pretreatment) was 0.383±0.038 resp/s; in data set [2] (70 min pretreatment), 0.338±0.187 resp/s; in data set [8] (15 min pretreatment), 0.385±0.060 resp/s; in data set [8] (70 min pretreatment) it was 0.379±0.054 resp/s; in data set [9] (15 min pretreatment), 0.154±0.070 resp/s; in data set [9] (70 min pretreatment), 0.332±0.067 resp/s. Also, the “Rate of responding at dose of maximum DAR” value came out at 0.402±0.073 resp/s in data set [15] (15 min pretreatment), 0.547±0.127 resp/s in data set [15] (70 min pretreatment), 0.190±0.086 resp/s in [18] (15 min pretreatment) and 0.072±0.032 resp/s in [18] (70 min pretreatment). Moreover, the “Maximum %DAR (drug-appropriate responding)” value in [2] (setting [25]) was 100±0 %; in data set [8] (15 min pretreatment) it was 83±17 %; in data set [8] (70 min pretreatment) it was 83±17 %; in data set [9] (i.p., 70 min pretreatment, at dose of maximum DAR), 83±17 %; in [15] (setting [25]) it was 61% and 61±20 ^2%; in data set [18] (setting [25]), 15±15 ^2%. For the same compound, the Ki (commonly a measure of affinity in units of concentration, obtained from inhibition or displacement) at human 5-HT1A receptor [3] was 1.63 ± 0.15 µM; at hDAT [11], above 10 µM; at human 5-HT2A receptor [12], 0.0239 ± 0.0039 µM; at hSERT [13] it was above 10 µM; at hNET [14], above 8.5 µM; on human 5-HT2C receptor [20], 0.0127 ± 0.0013 µM. Also, the figures for the IC50 against hNET [4], on hDAT [10] and on hSERT [16] were above 9.2 µM, above 10 µM and above 8.4 µM, respectively. At hSERT [5], the “[3H]Serotonin release % PCA maximal effect” value is “ND Minimal”. Moreover, the “Rats that failed to complete the first fixed ratio” value in the data set with Male Sprague-Dawley rats (setting [26]) is on record as 4/6. Besides, in the data set with Male Sprague-Dawley rats (setting [26]), the “Reddening of the extremities (rats affected/tested)” value is 2/6. The “Rats with salivation and failure to complete the first fixed ratio” value in the data set with Male Sprague-Dawley rats (50 mg/kg, 70 min) is reported as “Two of three”. For the same compound, the EC50 (usually the concentration needed to bring the measured effect to its halfway point) at human 5-HT2C receptor [6] is 0.0711 ± 0.008 µM; at human 5-HT1A receptor [7], above 10 µM; on human 5-HT2A receptor [17] it was 0.153 ± 0.028 µM; on human 5-HT2A receptor [21] it was 0.145 ± 0.039 µM. The Emax was 100 ± 14% at human 5-HT2C receptor [6], below 25% at human 5-HT1A receptor [7], 81.1 ± 9.7% at human 5-HT2A receptor [17] (read-out: 5-HT2A Function [3H]AA release % maximal effect) and 93 ± 6.7% on human 5-HT2A receptor [21]. In the data set with Male Swiss–Webster mice (100 mg/kg i.p., within 30 min), the “Lethality (mice)” value was 8/8. The “Doses producing stimulant effects on locomotor activity” value in the data set with Male Swiss–Webster mice (mice, i.p.) amounted to 3 mg/kg. Also, in the data set with Male Swiss–Webster mice (mice, i.p.), the “Duration of depressant effects” value lay in the range of 20 to 40 min. The “Duration of stimulant effects” value in the data set on Male Swiss–Webster mice (mice, i.p.) was 180 min. Further, the “Onset of depressant effects (within, after injection)” value with Male Swiss–Webster mice (mice, i.p.) is at most 10 min. In the data set on Male Swiss–Webster mice (mice, i.p.), the “Onset of stimulant effects (within, after injection)” value is recorded as at most 50 min. Also, the “[3H]NE release % METH maximal effect” value on hNET [19] is recorded as “ND Minimal”.

As to `COc1cc(Br)c(OC)c2c1[C@H](CN)C2` [((R)-4-bromo-3,6-dimethoxybenzocyclobuten-1-yl)methyl-amine)], the “Fold more potent at stimulating inositol phosphate turnover than AA release” value in the data set on 5-HT2A is 65 fold.

In the case of `CN[C@@H](C)Cc1ccccc1` [METH, methamphetamine, reference compound], the Emax at hDAT [1] (read-out: [3H]Dopamine release % METH maximal effect) is 100%; at human 5-HT2C receptor [6], 52 ± 10%; at human 5-HT1A receptor [7], 68 ± 11%; at hNET [19] (read-out: [3H]NE release % METH maximal effect) it was 100%; at human 5-HT2A receptor [21], below 3%. Also, the EC50 is 0.97 ± 0.25 µM on hDAT [22]; 27.8 ± 7.7 µM on hSERT [23]; 0.067 ± 0.018 µM at hNET [24]; 74 ± 16 µM on human 5-HT2C receptor [6]; 23.6 ± 8.1 µM at human 5-HT1A receptor [7]; above 1000 µM on human 5-HT2A receptor [21]. Besides, the Ki at human 5-HT1A receptor [3] worked out at 9.7 ± 1.8 µM; on hDAT [11] it was 4.75 ± 0.53 µM; on human 5-HT2A receptor [12], 41.9 ± 9.6 µM; at hSERT [13] it was 188 ± 14 µM; on hNET [14], 1.48 ± 0.13 µM; at human 5-HT2C receptor [20] (read-out: 5-HT2C [125I]DOI binding Ki ± sem), 10.1 ± 3.2 µM. Besides, the half-maximal inhibitory concentration (IC50) (as a rule, the concentration that inhibits the measured activity by half) at hNET [4] stood at 0.023 ± 0.0055 µM; against hDAT [10], 0.056 ± 0.015 µM.
